Experimental data taken from article PMC7831021, “Computational Evolution of Beta-2-Microglobulin Binding Peptides for Nanopatterned Surface Sensors” (International Journal of Molecular Sciences, 2021).
Where a SMILES comes first, the peptide text is derived from it. Bridges are numbered along the chain shown (N, C = ends).

How the values were obtained:
[1] = biological target: T1, beta-2-Microglobulin (β2m) (Homo sapiens, UniProt P61769); assay: AFM differential height β2m binding (recognition) assay on dsDNA–peptide nanopatches; details: 5 and 1.25 mg/mL β2m
T1 construct: purchased Sigma Aldrich (Germany)
Procedure: After the nanografting process, the sample was thoroughly rinsed with 1M NaCl, TE1X buffer (DNA-free buffer), followed by a hybridization procedure with 200 nM of ssDNA–peptide conjugates solution in 1 M NaCl, Te1X at pH 7.2 and the hybridization process took place at 37 °C for 1 h. This was repeated for different concentrations of the ssDNA–pep381 so as to obtain the plots in Figure 7. Next, the sample was copiously rinsed with 1M NaCl, TE1X buffer (DNA-free buffer). This was to remove any un-bound molecules and other excess molecules that were not part of the hybridization. At the end of hybridization process before β2m binding assays, we performed AFM topographic imaging at low force (~0.2 nN) in contact mode and acquired AFM micrographs of all the nanografted nanoassemblages that had undergone hybridization. This imaging section allowed us to compare the AFM micrographs of ssDNA nanopatches to the same after hybridization with ssDNA–peptide conjugates and measure their respective relative heights.
The dsDNA–peptide nanoassemblages were incubated with the known concentration of β2m solution for a period of 1 h at 25 °C. […] Next, we measured the relative height of dsDNA–peptide assemblage after the binding assay using the section tool in Igor Pro 6.3A software. […]

[2] = biological target: T1, beta-2-Microglobulin (β2m); assay: Surface plasmon resonance (SPR) binding of peptides to immobilized β2m
Procedure: The interaction between the protein and computationally optimized peptides was measured using the BIAcore 3000 (GE Healthcare, Milano, Italy). β2m was immobilized at a concentration of 100 μg/mL in 10 mM acetate buffer pH 5 (flow rate 5 μL/min, time injection 7 min) on a CM5 Biacore sensor chip, using EDC/NHS chemistry following the manufacturer’s instructions. Residual reactive groups were deactivated by treatment with 1 M ethanolamine hydrochloride, pH 8.5. The reference channel was activated with EDC/NHS and deactivated with ethanolamine. The binding assays were carried out at 20 μL/min at 25 °C, with 4.5 min contact-time. Peptides were diluted in the HBS running buffer (10 mM Hepes, 150 mM NaCl, 3 mM EDTA, pH 7.4). Analyte injections were performed at the indicated concentrations. The sensor surface was regenerated by using 10mM NaOH for 1 min. The association phase (kon) was followed for 250 s, whereas the dissociation phase (koff) was followed for 300 s. The instrument BIAevaluation analysis package (version 4.1, GE Healthcare, Milano, Italy) was used to subtract the signal of the reference channel.

Row | recognition of respective binding sites on β2m, in words [1] | kon ([2]; BIAcore 3000, HBS pH 7.4, 25 °C, association followed for 250 s, χ^2 = 4.5) | koff ([2]; BIAcore 3000, HBS pH 7.4, 25 °C, dissociation followed for 300 s, χ^2 = 4.5) | SPR affinity, in words ([2]; SPR, 1:1 Langmuir) | Compound
1 | relatively high sensitivity | – | – | – | [CRRYSHQHYRHC] (disulfide) [pep381]
2 | – | 15 M⁻¹ s⁻¹ | 0.00449 s⁻¹ | micromolar KD estimated values | C[C@@H]1NC(=O)[C@H]([C@@H](C)O)NC(=O)[C@H](CCC(=O)O)NC(=O)[C@H](Cc2ccccc2)NC(=O)[C@@H](N)CSSC[C@@H](C(=O)O)NC(=O)[C@H](Cc2c[nH]c3ccccc23)NC(=O)[C@H](CCC(=O)O)NC(=O)[C@H](CC(N)=O)NC(=O)[C@H](CCC(N)=O)NC(=O)[C@H](CCCNC(=N)N)NC(=O)[C@H](Cc2c[nH]c3ccccc23)NC1=O [pep331] (H-CFETAWRQNEWC-OH; disulfide 1-12)
